Source: patent publication US11420962B2, “Indene derivatives useful in treating pain and inflammation” (TARO PHARMACEUTICALS INC., priority 2018, dated 2022)
pEC50: −log10 of the molar value.

Legend:
[1] = Metabolism by human liver microsomes; format: in vitro ADME; details: in the presence of NADPH; for Scoring (% of drug remaining after 60 minutes, PDR60): Table 8, 10 µM, 1 mg/mL protein
Method: Representative compounds of the invention (i.e., test compounds) and the positive control, 7-ethoxycoumarin, were prepared as stock solutions at 10 mM in DMSO and eventually diluted to 10 μM in the test plate, with an appropriate amount of acetonitrle and tris HCl buffer. Final DMSO and acetonitrile concentrations were […] and 0.5% respectively. NADPH was prepared in tris HCl buffer to a stock of 10 mM. A frozen aliquot of live microsomes was retrieved from the freezer (−80° C.) and thawed by placing the tube on wet ice. After thawing, the tubes were gently mixed and the required amount, transferred to tris HCl buffer. Test compounds or positive control were pre-incubated, separately, for 10 minutes, with liver microsomes (1 mg/mL protein), at 37° C., in 100 mM Tris HCl at pH 7.5. After preincubation the reaction was started by adding 1 mM NADPH (pre-equilibrated to […]) and the reaction allowed to proceed for 60 minutes. At 60 minutes, a 50 μL aliquot was removed and quenched with 200 uL of acetonitrile containing a mixture of internal standards (Tolbutamide (500 ng/mL) and Telmistartan (500 ng/mL)) and vortexed then centrifuged at 4000 rmp for 10 minutes (Eppendorf 5810R). The supernatant was transferred to a 96 well plate for LC-MS/MS analysis.
An LC-MS/MS method was devised for the test compounds and the control, using a AB Sciex API 4000 system coupled to a NEXAR™ UHPLC (Shimadzu) system. Analytes were separated on a Phenomenex Kinetex C18 column (50×2.1 mm, 5 μm) using a gradient that was appropriate for each compound, at a flow rate of 1 ml/minute, utilizing a mobile phase of 0.1% formic acid in MILLI-Q™ water (A) and 0.1% formic acid in acetonitrile (B). The MS instrument was operated in positive mode (ESI+)/negative (ESI−). The multiple reaction monitoring (MRM) transition for test and control compounds was used for the LC-MS/MS analysis. MRM transitions for control compound 7-ethoxycoumarinm were Quadropole 1: 191.0, Quadropole 3: 163.0, dwell time: 75 msec, using curtain gas settings of 5 V, ion-spray voltage of 5500 V, temperature of 50° C. and gas settings for nebulizer and auxiliary set to 30 and 40 psi, respectively. The interface heater was kept on. Entrance potential and collision cell exit potential were varied to tune for a specific compound.
Using a suitable LC-MS/MS method, the percentage of drug remaining at 60 minutes ([…]) was assessed by comparing the average analyte to internal standard area ratio at 60 minutes to the average analyte to internal standard area ratio at 0 time control, as a percentage, from a 5 to 10 μL sample injection.
According to the above assay, the representative compounds listed in Table 8 below were active in the Human liver microsome assay at […] and the % of drug remaining after 60 minutes (PDR60), in the presence of NADPH, was assessed by LC-MS/MS. Average PDR60 for the standard compound, 7-ethoxycoumarin was <=65% in the presence of NADPH. Scoring for the test compounds, in the presence of NADPH, was as follows: “A” represents a PDR^60 of 81 to 100%, “B” represents a PDR^60 of 61 to 80%, “C” represents a PDR^60 of 31 to 60% and “D” represents a PDR^60 of 0 to 30%.

Rat DRG = assay: Rat dorsal root ganglion excitability response (EFS, Ca2+ transients); format: cell-based; details: Rattus norvegicus; Table 3; electrical field stimulation, Ca5 indicator; read-out: Scoring (EC50, Rat DRG excitability)
Method: Dorsal root ganglions (DRGs) were dissected from adult rats. The tissue was processed, and cells were seeded into call culture plates (48 center wells of one quadrant in 384-well plates) and cultured for 2 days prior to Electrical field stimulation (EFS). To visualize the neuronal excitability response, intracellular Ca^+2 transients were monitored using the Ca^+2 indicator, Ca5. Ca5 was added to the cultures 1 h prior to EFS. Representative test compounds of the invention (i.e., test compounds) and reference compound, tetracaine, were added in concentration-response format encompassing six concentrations, performed in duplicate. The highest concentration tested was typically 30 μM with 1 in 3 dilutions generating the subsequent concentrations.
Effects on DRG excitability by the test compounds and standard were evaluated using four EFS protocols as disclosed in Table 2.
Experimental results were performed using two separate sets of plates using separate test compound and standard dilutions, to provide n=2. In the first set of experiments, compounds were added 24 h prior to EFS to increase the possibility to also detect more long-term compound effects. In the second set of experiments the compounds were added directly prior to EFS. Excitability response to EFS was analyzed as the average fluorescence ratio (peak/baseline) change per well. All plates were evaluated using high content imaging equipment post-EFS, imaging the Ca5 background staining to detect any possible compound-related toxic effects.
Average response by the standard compound, tetracaine, was 4.05 μM.

| Compound | Average PDR60 [1] | pEC50 (Rat DRG) | Scoring (% of drug remaining after 60 minutes, PDR60) [1] |
| --- | --- | --- | --- |
| CCOc1ccc2ccc(=O)oc2c1 [7-ethoxycoumarin, reference compound] | <= 65% |  |  |
| CC1(C)CCC2=C1CC[C@H]([C@@]1(C)Cc3cn[nH]c3C[C@@H]1CO)[C@H]2CN [Ia-2, ((5R,6S)-5-((4R,5S)-4-(aminomethyl)-1,1-dimethyl-2,3,4,5,6,7-hexahydro-1H-inden-5-yl)-5-methyl-4,5,6,7-tetrahydro-1H-indazol-6-yl)methanol] |  | < 4.82 | B (a PDR^60 of 61 to 80%) |
| C[C@H]1CC[C@H]2[C@H](CO)[C@@H]([C@@]3(C)Cc4cn[nH]c4C[C@@H]3CO)CC[C@]12C [Ia-5, ((5R,6S)-5-((1S,3aS,4S,5S,7aR)-4-(hydroxymethyl)-1,7a-dimethyloctahydro-1H-inden-5-yl)-5-methyl-4,5,6,7-tetrahydro-1H-indazol-6-yl)methanol] |  |  | D (a PDR^60 of 0 to 30%) |
| C=C1CC[C@H]2[C@H](CN)[C@@H]([C@@]3(C)Cc4cn(-c5ccccn5)nc4C[C@@H]3CO)CC[C@]12C [Ia-11, ((5R,6S)-5-((3aS,4R,5S,7aS)-4-(aminomethyl)-7a-methyl-1-methyleneoctahydro-1H-inden-5-yl)-5-methyl-2-(pyridin-2-yl)-4,5,6,7-tetrahydro-2H-indazol-6-yl)methanol] |  | 5.22 to 5.70 | B (a PDR^60 of 61 to 80%) |
| C=C1CC[C@H]2[C@H](CN)[C@@H]([C@@]3(C)Cc4cnn(C(C)(C)C)c4C[C@@H]3CO)CC[C@]12C [Ia-12, ((5R,6S)-5-((3aS,4R,5S,7aS)-4-(aminomethyl)-7a-methyl-1-methyleneoctahydro-1H-inden-5-yl)-1-(tert-butyl)-5-methyl-4,5,6,7-tetrahydro-1H-indazol-6-yl)methanol] |  | 5.22 to 5.70 | D (a PDR^60 of 0 to 30%) |
| C=C1CC[C@H]2[C@H](CN)[C@@H]([C@@]3(C)Cc4cn(C(C)(C)C)nc4C[C@@H]3CO)CC[C@]12C [Ia-13, ((5R,6S)-5-((3aS,4R,5S,7aS)-4-(aminomethyl)-7a-methyl-1-methyleneoctahydro-1H-inden-5-yl)-2-(tert-butyl)-5-methyl-4,5,6,7-tetrahydro-2H-indazol-6-yl)methanol] |  | 5.22 to 5.70 | A (a PDR^60 of 81 to 100%) |
| C=C1CC[C@H]2[C@H](CN)[C@@H]([C@@]3(C)Cc4cnn(C5CCCCC5)c4C[C@@H]3CO)CC[C@]12C [Ia-16, ((5R,6S)-5-((3aS,4R,5S,7aS)-4-(aminomethyl)-7a-methyl-1-methyleneoctahydro-1H-inden-5-yl)-1-cyclohexyl-5-methyl-4,5,6,7-tetrahydro-1H-indazol-6-yl)methanol] |  | 5.22 to 5.70 | B (a PDR^60 of 61 to 80%) |
| C=C1CC[C@H]2[C@H](CN)[C@@H]([C@@]3(C)Cc4cn(Cc5ccccc5)nc4C[C@@H]3CO)CC[C@]12C [Ia-19, ((5R,6S)-5-((3aS,4R,5S,7aS)-4-(aminomethyl)-7a-methyl-1-methyleneoctahydro-1H-inden-5-yl)-2-benzyl-5-methyl-4,5,6,7-tetrahydro-2H-indazol-6-yl)methanol] |  | 5.22 to 5.70 | B (a PDR^60 of 61 to 80%) |
| C=C1CC[C@H]2[C@H](CN)[C@@H]([C@@]3(C)Cc4cnn(-c5cccnc5)c4C[C@@H]3CO)CC[C@]12C [Ia-20, ((5R,6S)-5-((3aS,4R,5S,7aS)-4-(aminomethyl)-7a-methyl-1-methyleneoctahydro-1H-inden-5-yl)-5-methyl-1-(pyridin-3-yl)-4,5,6,7-tetrahydro-1H-indazol-6-yl)methanol] |  | 4.82 to 5.22 | D (a PDR^60 of 0 to 30%) |
| C=C1CC[C@H]2[C@H](CN)[C@@H]([C@@]3(C)Cc4cnn(CC(C)(C)C)c4C[C@@H]3CO)CC[C@]12C [Ia-22, ((5R,6S)-5-((3aS,4R,5S,7aS)-4-(aminomethyl)-7a-methyl-1-methyleneoctahydro-1H-inden-5-yl)-5-methyl-1-neopentyl-4,5,6,7-tetrahydro-1H-indazol-6-yl)methanol] |  | 5.22 to 5.70 | D (a PDR^60 of 0 to 30%) |
| C[C@]1([C@H]2CC[C@]3(C)C=CC[C@H]3[C@@H]2CN)Cc2cn[nH]c2C[C@@H]1CO [Ia-28, ((5R,6S)-5-((3aR,6S,7R,7aS)-7-(aminomethyl)-3a-methyl-3a,4,5,6,7,7a-hexahydro-1H-inden-6-yl)-5-methyl-4,5,6,7-tetrahydro-1H-indazol-6-yl)methanol] |  |  | A (a PDR^60 of 81 to 100%) |
| C[C@H]1CC[C@H]2[C@H](CN)[C@@H]([C@@]3(C)Cc4cn(-c5ccccc5)nc4C[C@@H]3CO)CC[C@]12C [Ia-36, ((5R,6S)-5-((1S,3aS,4S,5S,7aR)-4-(aminomethyl)-1,7a-dimethyloctahydro-1H-inden-5-yl)-5-methyl-2-phenyl-4,5,6,7-tetrahydro-2H-indazol-6-yl)methanol] |  | 5.22 to 5.70 | A (a PDR^60 of 81 to 100%) |
| C[C@H]1CC[C@H]2[C@H](CN)[C@@H]([C@@]3(C)Cc4cn(C(C)(C)C)nc4C[C@@H]3CO)CC[C@]12C [Ia-41, ((5R,6S)-5-((1S,3aS,4S,5S,7aR)-4-(aminomethyl)-1,7a-dimethyloctahydro-1H-inden-5-yl)-2-(tert-butyl)-5-methyl-4,5,6,7-tetrahydro-2H-indazol-6-yl)methanol] |  | > 5.70 | A (a PDR^60 of 81 to 100%) |
| C=C1CC[C@H]2[C@H](CN3CCCCC3)[C@@H]([C@@]3(C)Cc4cn[nH]c4C[C@@H]3CO)CC[C@]12C [Ia-47, ((5R,6S)-5-methyl-5-((3aS,4R,5S,7aS)-7a-methyl-1-methylene-4-(piperidin-1-ylmethyl)octahydro-1H-inden-5-yl)-4,5,6,7-tetrahydro-1H-indazol-6-yl)methanol] |  | 4.82 to 5.22 | D (a PDR^60 of 0 to 30%) |
| CC(C)CCC[C@@H](C)[C@H]1CC[C@H]2[C@H](CN)[C@@H]([C@@]3(C)Cc4cn[nH]c4C[C@@H]3CN)CC[C@]12C [Ia-57, ((1R,3aS,4S,5S,7aR)-5-((5R,6S)-6-(aminomethyl)-5-methyl-4,5,6,7-tetrahydro-1H-indazol-5-yl)-7a-methyl-1-((R)-6-methylheptan-2-yl)octahydro-1H-inden-4-yl)methanamine] |  |  | A (a PDR^60 of 81 to 100%) |
| C=C1CC[C@H]2[C@H](CN)[C@@H]([C@@]3(C)Cc4cn[nH]c4C[C@@H]3CN)CC[C@]12C [Ia-58, ((3aS,4R,5S,7aS)-5-((5R,6S)-6-(aminomethyl)-5-methyl-4,5,6,7-tetrahydro-1H-indazol-5-yl)-7a-methyl-1-methyleneoctahydro-1H-inden-4-yl)methanamine] |  |  | A (a PDR^60 of 81 to 100%) |
